We go through 1 compound from article PMC2784364, “VX-166: a novel potent small molecule caspase inhibitor as a potential therapy for sepsis” (Critical Care, 2009).

For one assay, the system named is Jurkat cells. Description: Staurosporine induced apoptosis in Jurkat cells, Annexin V. It is filed as cell-based. The note with it: Human Jurkat cell line/Annexin V, n = 4, read-out: IC50, inhibition of apoptosis. The protocol:
Jurkat cells were obtained from LGC Standards (Teddington, UK) and were grown in RPMI 1640, 10% FCS, 2 mM L-glutamine, 100 U/ml penicillin and 0.1 mg/ml streptomycin (all from Sigma Aldrich Ltd., Poole, UK) at 37°C in 5% CO2/95% humidity. Receptor- or stress-mediated apoptosis (2 × 10^5 cells/ml) was induced by addition of either anti-Fas antibody CH-11 (10 ng/ml, Millipore UK Ltd., Watford, UK), TNF-α (20 ng/ml, R&D Systems, Abingdon, UK) with cycloheximide (112 ng/ml, Sigma Aldrich Ltd., Poole, UK) or staurosporine (350 ng/ml, Sigma Aldrich Ltd., Poole, UK). VX-166 was diluted into DMSO (10 mM), further diluted in media and added at a range of concentrations. Cells were then incubated for 18 hours. Apoptotic cells were then labelled with Cy5-conjugated Annexin-V (BD Biosciences, Oxford, UK) and detected using a FMAT™ 8100 Fluorimetric Microassay Technology Reader (Applied Biosystems, Warrington, UK). For the experiments using anti-Fas antibody, apoptosis was additionally measured using a Cell Death Detection ELISA kit (Roche Diagnostics Ltd., Lewes, UK) following the manufacturer's instructions.

In a further assay the target is T1, caspase-7 (Homo sapiens, UniProt P55210).
T1 construct: Active recombinant caspase-1, -3, -4, -7 and -8 were prepared as described previously; made in house
T1 sequence (P55210 24-198 limits assumed): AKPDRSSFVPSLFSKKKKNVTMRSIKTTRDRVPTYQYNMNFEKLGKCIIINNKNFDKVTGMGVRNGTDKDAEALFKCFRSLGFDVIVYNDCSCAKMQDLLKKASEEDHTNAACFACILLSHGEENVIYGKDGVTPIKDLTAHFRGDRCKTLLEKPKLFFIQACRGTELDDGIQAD
T1 sequence (P55210 207-303 limits assumed): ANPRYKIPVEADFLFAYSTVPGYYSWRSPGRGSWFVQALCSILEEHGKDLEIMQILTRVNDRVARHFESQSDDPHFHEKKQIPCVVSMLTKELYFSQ
As to the kind of experiment: Caspase inhibition assay, second-order inactivation rate. The class given is biochemical. The note with it: recombinant caspase-7, 37°C, n = 4; read-out: Second order inactivation rate constant K. As for the experimental part: (§1) Active recombinant caspase-1, -3, -4, -7 and -8 were prepared as described previously. Caspase-2 was purchased from Biomol (Exeter, UK), caspase-6 from BD Biosciences (Oxford, UK), caspase-9 from Europa Bioproducts Ltd. (Cambridge, UK) and caspase-10 from Chemicon International Inc. (Harrow, UK). Cathepsin B and granzyme B were purchased from Merck Biosciences Ltd. (Nottingham, UK). Fluorogenic protease substrates were purchased from Bachem Ltd. (St. Helens, UK). All reactions were carried out at 37°C using a Molecular Devices (Wokingham, UK) Gemini plate-reader at 460 nm (excitation wavelength of 390 nm). Caspase inhibition assays were conducted, with minor modifications, as described by Margolin and colleagues. Irreversible kinetics were analysed by calculations of second-order inactivation rate constants (k) using GraphPad (La Jolla, CA, USA) Prism 4.0 software. A larger number for an inactivation rate constant indicates a greater degree of inactivation. To determine the inhibitory effect on cathepsin B, 4.25 nM of the enzyme were added to 250 μM z-RR-AMC in 10 mM 2-morpholino-ethanesulfonic acid pH 6.0, 1 mM DTT, 1 mM EDTA and 0.03% Brij35 in the presence or absence of VX-166 and the reaction monitored continuously over 15 minutes. Granzyme B was assayed, with minor modifications, as described by Thornberry and colleagues. Additional counterscreening against a panel of 83 additional enzymes, ion channels and receptors was carried out at MDS Pharma Services (Bothell, WA, USA).

For a further assay, the target named is T2, caspase-3 (Homo sapiens, UniProt P42574).
T2 construct: Active recombinant caspase-1, -3, -4, -7 and -8 were prepared as described previously; made in house
T2 sequence (P42574 29-175 limits assumed): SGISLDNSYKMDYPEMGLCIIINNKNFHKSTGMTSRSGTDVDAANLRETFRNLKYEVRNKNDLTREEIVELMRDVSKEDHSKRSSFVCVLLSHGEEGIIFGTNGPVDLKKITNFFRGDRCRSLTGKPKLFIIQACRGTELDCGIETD
T2 sequence (P42574 176-277 limits assumed): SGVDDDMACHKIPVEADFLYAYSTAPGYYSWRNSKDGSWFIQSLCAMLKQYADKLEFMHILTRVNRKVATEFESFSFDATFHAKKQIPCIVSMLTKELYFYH
Described as above. It is filed as biochemical. As for the experimental part:
as §1

Another assay addresses T3, caspase-10 (Homo sapiens, UniProt Q92851).
T3 construct: purchased Chemicon International Inc. (Harrow, UK)
The description is as above. The class given is biochemical. The conditions noted are these: recombinant caspase-10, 37°C, n = 4; read-out: Second order inactivation rate constant K. The protocol: as §1

Another assay addresses T4, caspase-4 (Homo sapiens, UniProt P49662).
T4 construct: Active recombinant caspase-1, -3, -4, -7 and -8 were prepared as described previously; made in house
The assay is described as above. The conditions noted are these: recombinant caspase-4, 37°C, n = 4; read-out: Second order inactivation rate constant K. It is filed as biochemical. The protocol:
as §1

A further assay has as its target T5, caspase-6 (Homo sapiens, UniProt P55212).
T5 construct: purchased BD Biosciences (Oxford, UK)
The assay is described as above. The conditions noted are these: recombinant caspase-6, 37°C, n = 4; read-out: Second order inactivation rate constant K. The class given is biochemical. The protocol:
as §1

A further assay has as its target T6, caspase-1 (Homo sapiens, UniProt P29466).
T6 construct: Active recombinant caspase-1, -3, -4, -7 and -8 were prepared as described previously; made in house
The assay is described as above. It is filed as biochemical. The conditions noted are these: caspase-1, text; read-out: second order inactivation rate constant (k). As for the experimental part: as §1

For assay [1], the system named is IL-18 release from peripheral blood mononuclear cells. As to the kind of experiment: IL-18 release from SAC-treated PBMC. The class given is cell-based. The conditions noted are these: overnight. As for the experimental part: (§2) Peripheral blood mononuclear cells (PBMC) from healthy donors were isolated by Ficoll-Paque gradient centrifugation from buffy coats obtained from the National Blood Transfusion Service (Bristol, UK). For IL-1β release, 5 × 10^5 cells/ml were then stimulated with 50 ng/ml lipopolysaccharide (LPS) from Escherichia coli (Sigma-Aldrich Ltd., Poole, UK) in the presence or absence of VX-166 and incubated for 18 hours. Secretion of IL-1β into the supernatant was determined by ELISA (R&D Systems, Abingdon, UK) following the manufacturer's instructions. For IL-18 release, 7.5 × 10^5 cells/ml were stimulated with 6.25 × 10^-4% (w/v) Staphylococcus aureus cell suspension (SAC; Sigma-Aldrich Ltd., Poole, UK) in the presence or absence of VX-166 and incubated overnight. The IL-18 content in the supernatants was quantified by ELISA (Caltag-MedSystems Ltd., Buckingham, UK) following the manufacturer's instructions. In both assays PBMC viability was assessed after the 18 hours incubation time using MTS assay (Promega UK Ltd., Southampton, UK) to ensure that the reduction in cytokine release was not caused by a cytotoxic effect of the compound.

Assay [2] relates to IL-2 release from peripheral blood mononuclear cells. Description: IL-2 release from anti-CD3/CD28 stimulated PBMC. It is filed as cell-based, human. The note with it: at 100 μM. As for the experimental part:
PBMC from healthy donors were isolated as described above. To the wells of a 96-well plate previously coated with 1.5 μg/ml anti-hCD3 (Serotec, Kidlington, UK), 5 × 10^5 cells/ml and 1 μg/ml anti-hCD28 (BD Biosciences, Oxford, UK) were added. Plates were then incubated for 24 hours in the presence or absence of VX-166 or the calcineurin inhibitor FK506 (Merck Biosciences Ltd., Nottingham, UK). IL-2 release into the supernatant was subsequently determined by ELISA (R&D Systems, Abingdon, UK) following the manufacturer's instructions.

Assay [3] in a line: Counterscreening panel (MDS Pharma Services). The note with it: 5 μM, data not shown. The protocol:
as §1, with “Additional counterscreening against a panel of 83 additional enzymes, ion channels and receptors was carried out at MDS Pharma Services (Bothell, WA, USA).” left out

In assay [4] the test system is IL-1β release from peripheral blood mononuclear cells. Description: IL-1β release from LPS-treated PBMC. The class given is cell-based. As for the experimental part: as §2

Where two headings read alike, the source gives them in different places. Bounds are passed on as bounds.

T5 sequence (P55212 24-293): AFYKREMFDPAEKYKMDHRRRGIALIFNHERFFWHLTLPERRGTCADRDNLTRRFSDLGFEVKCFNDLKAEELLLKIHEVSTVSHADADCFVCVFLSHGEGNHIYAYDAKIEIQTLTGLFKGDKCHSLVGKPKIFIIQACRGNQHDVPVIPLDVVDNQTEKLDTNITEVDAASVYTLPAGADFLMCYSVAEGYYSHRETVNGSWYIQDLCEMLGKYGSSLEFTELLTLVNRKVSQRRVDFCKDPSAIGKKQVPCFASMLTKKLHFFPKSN
T3 sequence (Q92851 220-521): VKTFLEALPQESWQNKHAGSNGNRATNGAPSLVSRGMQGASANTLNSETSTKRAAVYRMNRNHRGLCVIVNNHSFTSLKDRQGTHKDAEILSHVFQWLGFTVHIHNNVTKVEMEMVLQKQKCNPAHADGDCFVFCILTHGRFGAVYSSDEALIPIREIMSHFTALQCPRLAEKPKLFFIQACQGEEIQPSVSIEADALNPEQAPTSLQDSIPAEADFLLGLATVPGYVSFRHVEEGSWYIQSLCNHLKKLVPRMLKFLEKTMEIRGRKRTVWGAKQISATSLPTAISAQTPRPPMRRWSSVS
T6 sequence (P29466 120-297 limits assumed): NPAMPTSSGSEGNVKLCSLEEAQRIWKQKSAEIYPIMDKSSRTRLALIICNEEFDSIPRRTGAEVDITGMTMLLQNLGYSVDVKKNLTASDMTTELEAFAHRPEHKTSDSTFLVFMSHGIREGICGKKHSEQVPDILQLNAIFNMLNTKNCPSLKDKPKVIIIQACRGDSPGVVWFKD
T6 sequence (P29466 317-404 limits assumed): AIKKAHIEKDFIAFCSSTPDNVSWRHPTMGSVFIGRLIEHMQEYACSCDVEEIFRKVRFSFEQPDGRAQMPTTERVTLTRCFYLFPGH
T4 sequence (P49662 81-270 limits assumed): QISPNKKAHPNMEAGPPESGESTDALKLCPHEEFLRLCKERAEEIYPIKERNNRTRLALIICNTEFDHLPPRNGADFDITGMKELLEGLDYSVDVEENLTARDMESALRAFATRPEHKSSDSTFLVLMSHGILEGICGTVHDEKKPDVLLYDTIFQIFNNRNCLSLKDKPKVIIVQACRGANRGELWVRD
T4 sequence (P49662 290-377 limits assumed): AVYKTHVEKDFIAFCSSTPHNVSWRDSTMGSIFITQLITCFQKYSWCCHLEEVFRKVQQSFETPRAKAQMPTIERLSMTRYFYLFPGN

One may read the IC50 as the concentration that inhibits the measured activity by half. For `CCC(C(=O)NC(CC(=O)O)C(=O)COc1c(F)c(F)cc(F)c1F)n1cccc(NC(=O)OC)c1=O` (centres unmarked) [VX-166], the IC50 in the assay on Jurkat cells is 255 ± 155 nM; in assay [1] (Homo sapiens, PBMC, n = 4, read-out: IC50 ± SD, inhibition of IL-18 release) it was less than 500 nM; in assay [1] (SAC-treated human PBMC, n = 4, read-out: IC50 ± SD, inhibition of IL-18 release), 450 ± 170 nM; in [4] (Homo sapiens, PBMC, 18 h, n = 4, read-out: IC50 ± SD, inhibition of IL-1β release), less than 500 nM; in assay [4] (LPS-treated human PBMC, 18 hours, n = 4, read-out: IC50 ± SD, inhibition of IL-1β release) it was 260 ± 120 nM. Also, the kinact/KI was 526000 ± 1500 M⁻¹ s⁻¹ on caspase-7; more than 1e+06 M⁻¹ s⁻¹ on caspase-3 (caspase-3, text, read-out: second order inactivation rate constant (k)); 1.17e+06 ± 183000 M⁻¹ s⁻¹ at caspase-3 (read-out: Second order inactivation rate constant K); 49000 ± 3800 M⁻¹ s⁻¹ at caspase-10; 480000 ± 32000 M⁻¹ s⁻¹ on caspase-4; 77000 ± 3000 M⁻¹ s⁻¹ on caspase-6. In addition, the kinact/KI at caspase-1 was more than 1e+06 M⁻¹ s⁻¹. Also, the “inhibition of T-cell activation in vitro” value in [2] is “partial inhibition”. Further, in assay [3], the “cross-reactivity in panel of 83 enzymes, ion channels and receptors (28 proteases)” value was “No significant cross-reactivity”.
